SMILES strings stand for the structures.

The subject of assay [1] is normal human keratinocytes. The assay can be described thus: Comet assay with formamidopyrimidine DNA glycosylase (FPG) to detect oxidized DNA-bases after light exposure. It counts as cell-based. The conditions noted are these: UVA, IR and visible light; creatine included in the compositions. How it is done: (§1) Experiments were carried out using the protocol discussed in Chamayou-Robert et al. Photodermatol Photoimmunol Photomed. 2021; 00:1-7. Briefly, experiments were performed on normal human keratinocytes. Cells were exposed to either UVB (280-315 nm), UVA (315-400 nm), visible light, blue light (400-500 nm), or infra-red (760 nm-1 mm) for a time to induce DNA damage. Cells were then treated with the compositions indicated in FIGS. 3(a), 3(b) and 4(a), 4(b) and 4(c), respectively and DNA damage was analyzed by using the comet assay (Wischermann et al. Mutat Res. 2007; 630:122-128; Jean et al. Photochem Photobiol. 2007; 74 (3): 417-423; Azqueta et al. Mutagenesis. 2013; 28:271-277; Chamayou-Robert et al. Photoderm Photoimmun. 2021; 00:1-7) with the use of specific enzymes, formamidopyrimidine DNA glycosylase (FPG) or T4 endonuclease V in order to detect oxidized DNA-bases and cyclobutane pyrimidine dimers (CPD) respectively.
(§2) Compositions comprising creatine in an amount of 0.5% w/w, Micrococcus Lysate in an amount of 0.0005% w/w and Arabidopsis Thaliana extract in an amount of 0.0005% w/w were tested in this example.

Assay [2] relates to normal human keratinocytes. The experiment in a line: Comet assay with T4 endonuclease V to detect cyclobutane pyrimidine dimers (CPD) after light exposure. The format is cell-based. The conditions noted are these: UVB and visible light; creatine included in the compositions. How it is done:
as §1, §2

On to `CN(CC(=O)O)C(=N)N` [creatine, Creatine], for which the “effect on the DNA repair of oxidative DNA damage induced by light” value in assay [1] is reported as “boosting effect”. In addition, the “effect on the DNA repair of CPD damage induced by light” value in assay [2] is “boosting effect”.

(Values after patent publication US20240398885A1, “FULL LIGHT REPAIR” (Coty Inc., priority 2021, published 2024).)
